We go through one compound from patent publication US11155523B2, “Biphenyl compound as CCR2/CCR5 receptor antagonist” (Medshine Discovery Inc., priority 2016, dated 2021).

In one data set the target is T1, CCR2 (Homo sapiens, UniProt P41597).
T1 construct: expressed in transfected cells; host or cells: HEK293, clone C7, passage P6
The data set can be described thus: CCR2 in vitro test: intracellular calcium signal detected by FLIPR. Format: cell-based. Particulars: HEK293 cells expressing CCR2, agonist MCP-1 at EC80, calcium signal. The procedure, abridged:
(§1)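 Receptor-expressing cells loaded with Fluo-4 Direct and probenecid (2.5 mM final), then preincubated with compounds (11-point 1:3 series) before challenge at EC80 of agonist (MCP-1 for CCR2, RANTES for CCR5). FLIPR calcium max−min signal; IC50 fitted.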

For data set [1], the system named is human liver microsomal cytochrome P450 isoenzymes. The data set can be described thus: Inhibition of human liver microsomal cytochrome P450 isoenzymes, overall conclusion. Format: in vitro ADME. Particulars: human liver microsomes. On the procedure: (§2) Experimental Example 4 Inhibition Effect on the Activity of Human Liver Microsomal Cytochrome P450 Isoezymes (CYP1A2, CYP2C9, CYP2C19, CYP2D6 and CYP3A4)
(§3) A total of 5 specific probe substrates for CYP's five isozymes, Phenacetin (CYP1A2), Diclofenac (CYP2C9), […] (S)-Mephenytoin, CYP2C19), Dextromethorphan (CYP2D6) and Midazolam (CYP3A4) were incubated with human liver microsomes and test compounds, respectively, and reduced nicotinamide adenine dinucleotide phosphate (NADPH) was added to initiate the reaction. After the reaction, the sample was processed and liquid chromatography tandem mass spectrometry (LC-MS/MS) was used to quantitatively detect the […] metabolites produced by the specific substrate, Acetaminophen and 4′-hydroxydiclofenac, 4′-hydroxymephenytoin, Dextrorphan and 1′-hydroxymidazolam, in order to calculate the corresponding half maximal inhibitory concentration (IC50).

The target of the next data set is T2, CYP3A4 (Homo sapiens, UniProt P08684).
T2 construct: from tissue; host or cells: human liver microsomes
T2 sequence (P08684 whole entry): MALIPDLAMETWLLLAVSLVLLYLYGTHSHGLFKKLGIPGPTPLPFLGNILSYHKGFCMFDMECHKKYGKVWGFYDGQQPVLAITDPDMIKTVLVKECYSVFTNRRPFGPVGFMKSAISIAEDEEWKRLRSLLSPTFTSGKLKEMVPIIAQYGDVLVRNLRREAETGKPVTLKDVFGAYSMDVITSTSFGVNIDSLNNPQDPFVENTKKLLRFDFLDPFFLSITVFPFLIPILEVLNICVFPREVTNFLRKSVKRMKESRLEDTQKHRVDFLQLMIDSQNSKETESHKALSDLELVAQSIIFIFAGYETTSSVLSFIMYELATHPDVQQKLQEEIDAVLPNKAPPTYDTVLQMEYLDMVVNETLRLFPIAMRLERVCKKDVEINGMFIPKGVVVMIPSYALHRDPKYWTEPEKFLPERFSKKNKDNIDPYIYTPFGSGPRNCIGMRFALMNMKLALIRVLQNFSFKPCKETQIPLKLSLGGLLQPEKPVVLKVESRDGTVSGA
The data set can be described thus: Inhibition of human liver microsomal CYP3A4 (midazolam probe). Format: in vitro ADME. Particulars: human liver microsomes, probe midazolam. On the procedure: as §2, §3

The next data set addresses T3, CYP1A2 (Homo sapiens, UniProt P05177).
T3 construct: from tissue; host or cells: human liver microsomes
T3 sequence (P05177 1-516): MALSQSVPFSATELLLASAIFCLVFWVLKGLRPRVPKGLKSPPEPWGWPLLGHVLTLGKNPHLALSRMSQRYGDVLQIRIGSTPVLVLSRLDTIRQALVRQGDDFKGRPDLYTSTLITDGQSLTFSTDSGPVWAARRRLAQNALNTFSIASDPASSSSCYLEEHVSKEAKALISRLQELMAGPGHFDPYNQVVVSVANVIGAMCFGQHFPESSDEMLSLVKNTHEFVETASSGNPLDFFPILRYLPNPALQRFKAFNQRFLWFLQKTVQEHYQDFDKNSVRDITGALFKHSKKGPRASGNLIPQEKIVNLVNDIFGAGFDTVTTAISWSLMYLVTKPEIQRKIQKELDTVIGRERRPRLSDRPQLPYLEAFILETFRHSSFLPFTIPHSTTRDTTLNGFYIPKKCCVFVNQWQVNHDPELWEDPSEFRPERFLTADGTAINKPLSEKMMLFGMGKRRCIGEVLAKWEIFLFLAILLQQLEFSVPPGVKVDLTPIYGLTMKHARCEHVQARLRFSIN
The experiment in a line: Inhibition of human liver microsomal CYP1A2 (phenacetin probe). Format: in vitro ADME. Particulars: human liver microsomes. On the procedure:
as §2, §3

The next data set has as its target T4, CYP2C9 (Homo sapiens, UniProt P11712).
T4 construct: from tissue; host or cells: human liver microsomes
The experiment in a line: Inhibition of human liver microsomal CYP2C9 (diclofenac probe). The class given is in vitro ADME. Particulars: human liver microsomes. On the procedure: as §2, §3

For another data set, the target named is T5, CYP2D6 (Homo sapiens, UniProt P10635).
T5 construct: from tissue; host or cells: human liver microsomes
T5 sequence (P10635 whole entry): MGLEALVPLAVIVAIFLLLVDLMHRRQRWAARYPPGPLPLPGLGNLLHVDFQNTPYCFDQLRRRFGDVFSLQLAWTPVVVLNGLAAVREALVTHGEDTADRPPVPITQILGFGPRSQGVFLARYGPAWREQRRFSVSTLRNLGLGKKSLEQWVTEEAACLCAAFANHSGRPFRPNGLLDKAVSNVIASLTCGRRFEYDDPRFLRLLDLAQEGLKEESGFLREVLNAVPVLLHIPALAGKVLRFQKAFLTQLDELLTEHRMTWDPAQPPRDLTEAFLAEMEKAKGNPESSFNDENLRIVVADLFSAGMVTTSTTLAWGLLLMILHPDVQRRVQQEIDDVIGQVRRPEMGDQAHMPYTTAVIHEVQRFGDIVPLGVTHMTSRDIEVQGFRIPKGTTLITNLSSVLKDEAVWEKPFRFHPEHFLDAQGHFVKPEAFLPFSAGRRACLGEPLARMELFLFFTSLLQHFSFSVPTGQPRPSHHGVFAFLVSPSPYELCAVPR
The experiment in a line: Inhibition of human liver microsomal CYP2D6 (dextromethorphan probe). The class given is in vitro ADME. Particulars: human liver microsomes. On the procedure:
as §2, §3

A short description of data set [2]: Comparative pharmacokinetics study in rats. The class given is in vivo, SD male rats. Particulars: rat. Here is the method: Experimental Example 2: Comparative Pharmacokinetics Study in Rats
SD male rats were used as the test animals in this study. The drug concentrations in plasma of the rats by intravenous or oral administration of test compounds WX017, WX047, WX079, WX088 and reference compound at different time points were quantitatively determined by LC/MS/MS, which were used to evaluate the pharmacokinetic profile of the two test drugs in rats.
A clear solution of the test compound was injected into SD rats via the tail vein (overnight fasting, 7-10 weeks old), and the test compound was orally administered to the SD rats (overnight fasting, 7-10 weeks old). Approximately 200 μL of blood was collected from the jugular vein or tail vein of the animals 0.0833, 0.25, 0.5, 1, 2, 4, 6, 8 and 24 hours after administration, and was placed in an anticoagulant tube containing EDTA-K2. The plasma was collected by centrifugation at 3000 g for 15 minutes at 4° C. The plasma concentration was determined by LC-MS/MS. The pharmacokinetic parameters were calculated by the non-compartment model linear logarithmic trapezoidal method using WinNonlin™ Version 6.3 (Pharsight, Mountain View, Calif.) pharmacokinetic software.

The next data set concerns the target T6, CYP2C19 (Homo sapiens, UniProt P33261).
T6 construct: from tissue; host or cells: human liver microsomes
The data set can be described thus: Inhibition of human liver microsomal CYP2C19 ((S)-mephenytoin probe). Particulars: human liver microsomes. The class given is in vitro ADME. On the procedure:
as §2, §3

For a further data set, the target named is T7, CCR5 (Homo sapiens, UniProt P51681).
T7 construct: expressed in transfected cells; host or cells: HEK293, clone C13, passage P4
T7 sequence (P51681 whole entry, species assumed): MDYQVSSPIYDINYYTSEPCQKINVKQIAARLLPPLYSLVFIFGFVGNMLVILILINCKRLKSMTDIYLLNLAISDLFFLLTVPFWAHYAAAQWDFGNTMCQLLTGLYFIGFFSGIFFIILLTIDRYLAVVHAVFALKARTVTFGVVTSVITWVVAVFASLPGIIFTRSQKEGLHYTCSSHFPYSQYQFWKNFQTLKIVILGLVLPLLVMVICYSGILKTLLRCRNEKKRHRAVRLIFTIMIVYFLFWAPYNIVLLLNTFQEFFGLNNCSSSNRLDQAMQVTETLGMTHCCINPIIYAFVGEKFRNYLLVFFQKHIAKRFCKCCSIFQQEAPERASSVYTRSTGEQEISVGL
The experiment in a line: CCR5 in vitro test: intracellular calcium signal detected by FLIPR. The class given is cell-based. The conditions noted are these: HEK293 cells expressing CCR5, agonist RANTES at EC80, calcium signal. The procedure, abridged:
as §1

Setting [3] is: male, Sprague-Dawley (SD), plasma, intravenous injection 2 mg/kg.

T1 sequence (P41597 whole entry, species assumed): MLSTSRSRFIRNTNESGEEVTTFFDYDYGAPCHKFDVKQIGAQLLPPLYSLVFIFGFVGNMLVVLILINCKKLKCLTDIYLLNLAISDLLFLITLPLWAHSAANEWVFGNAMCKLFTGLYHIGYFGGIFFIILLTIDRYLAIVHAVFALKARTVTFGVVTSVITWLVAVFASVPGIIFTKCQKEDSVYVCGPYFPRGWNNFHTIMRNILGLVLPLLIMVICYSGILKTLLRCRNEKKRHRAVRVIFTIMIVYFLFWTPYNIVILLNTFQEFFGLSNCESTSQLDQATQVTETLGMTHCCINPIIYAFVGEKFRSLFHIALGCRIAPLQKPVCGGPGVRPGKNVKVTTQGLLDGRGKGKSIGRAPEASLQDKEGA
T4 sequence (P11712 whole entry): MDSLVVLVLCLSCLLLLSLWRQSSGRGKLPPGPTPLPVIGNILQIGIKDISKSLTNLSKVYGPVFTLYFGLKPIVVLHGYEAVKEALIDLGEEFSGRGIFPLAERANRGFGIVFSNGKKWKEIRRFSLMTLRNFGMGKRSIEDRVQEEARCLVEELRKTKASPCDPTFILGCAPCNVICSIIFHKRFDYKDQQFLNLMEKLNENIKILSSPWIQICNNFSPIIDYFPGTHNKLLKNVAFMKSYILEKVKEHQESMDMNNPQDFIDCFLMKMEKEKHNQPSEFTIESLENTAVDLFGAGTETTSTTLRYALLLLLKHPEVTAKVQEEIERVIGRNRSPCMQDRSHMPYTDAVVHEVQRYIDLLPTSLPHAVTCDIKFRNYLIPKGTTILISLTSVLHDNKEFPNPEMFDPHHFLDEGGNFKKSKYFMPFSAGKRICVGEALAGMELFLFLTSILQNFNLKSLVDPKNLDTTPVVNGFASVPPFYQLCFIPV
T6 sequence (P33261 whole entry): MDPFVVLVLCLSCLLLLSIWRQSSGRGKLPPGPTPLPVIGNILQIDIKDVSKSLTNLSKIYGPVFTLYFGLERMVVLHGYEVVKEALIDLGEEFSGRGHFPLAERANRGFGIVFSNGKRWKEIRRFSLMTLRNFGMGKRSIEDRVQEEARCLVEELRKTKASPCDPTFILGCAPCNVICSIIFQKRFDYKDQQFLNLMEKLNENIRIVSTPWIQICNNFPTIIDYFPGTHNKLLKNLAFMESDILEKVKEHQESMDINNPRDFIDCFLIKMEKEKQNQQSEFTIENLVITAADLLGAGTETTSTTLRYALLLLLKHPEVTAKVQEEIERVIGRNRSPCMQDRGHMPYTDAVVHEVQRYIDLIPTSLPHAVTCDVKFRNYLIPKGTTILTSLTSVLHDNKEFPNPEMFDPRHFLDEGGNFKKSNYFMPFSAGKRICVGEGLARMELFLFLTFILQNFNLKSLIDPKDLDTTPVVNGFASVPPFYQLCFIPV

Take `CCCCOCCOc1ccc(-c2ccc(OC)c(/C=C/C(=O)Nc3ccc([S@+]([O-])Cc4c(C)ncn4CC)cc3)c2)cc1` [WX079]: the IC50 is 0.0056 µM on CCR2; 28.3 µM against CYP3A4; over 50 µM against CYP1A2; over 50 µM against CYP2C9; over 50 µM against CYP2D6; over 50 µM on CYP2C19. Moreover, on CCR5, the IC50 was found to be 0.0058 µM. Moreover, the “Risk of inhibiting isoenzymes of human liver microsomal cytochrome P450 (conclusion in words)” value in data set [1] is reported as “no risk on inhibiting five isoenzymes”. Also, the clearance in [2] (setting [3]) worked out at 0.224 mL/min/kg. In data set [2] (setting [3]), the half-life is 9.47 h. Besides, in [2] (male, Sprague-Dawley (SD), plasma, oral 10 mg/kg vs intravenous 2 mg/kg), the bioavailability is 32.6%. Moreover, the “Area Under a Curve (0-inf)” value in data set [2] (intravenous injection 2 mg/kg) is 255.072 µM·h. The “Area Under a Curve (0-inf/0-last)” value in data set [2] (oral 10 mg/kg) worked out at 404.142 µM·h. The same compound showed a Peak time in data set [2] (oral 10 mg/kg) of 3.0 h. Also, the “Oral plasma system exposure (AUC0-inf) as multiple of the reference compound” value in data set [2] (oral, relative to Cenicriviroc) turned out to be 12.6 times. Also, the “Plasma clearance as percent of that of the reference compound” value in data set [2] (relative to Cenicriviroc) was found to be 14%.
